Data published in publication PMC6270917, “Study on the Mechanism of Intestinal Absorption of Epimedins A, B and C in the Caco-2 Cell Model” (Molecules, 2014).
Read-outs that look alike come from different tables or passages of the source.

Legend:
P-glycoprotein (P-gp) = target: T1, P-glycoprotein (P-gp) (Homo sapiens, UniProt P08183); experiment: Caco-2 transport in the presence of verapamil (P-gp inhibitor); type: in vitro ADME; details: 20 μM epimedin; for efflux ratio at 5 h, 20 µM: human
T1 construct: endogenous in cells; host or cells: Caco-2 TC7 cell monolayers
T1 sequence (P08183 whole entry): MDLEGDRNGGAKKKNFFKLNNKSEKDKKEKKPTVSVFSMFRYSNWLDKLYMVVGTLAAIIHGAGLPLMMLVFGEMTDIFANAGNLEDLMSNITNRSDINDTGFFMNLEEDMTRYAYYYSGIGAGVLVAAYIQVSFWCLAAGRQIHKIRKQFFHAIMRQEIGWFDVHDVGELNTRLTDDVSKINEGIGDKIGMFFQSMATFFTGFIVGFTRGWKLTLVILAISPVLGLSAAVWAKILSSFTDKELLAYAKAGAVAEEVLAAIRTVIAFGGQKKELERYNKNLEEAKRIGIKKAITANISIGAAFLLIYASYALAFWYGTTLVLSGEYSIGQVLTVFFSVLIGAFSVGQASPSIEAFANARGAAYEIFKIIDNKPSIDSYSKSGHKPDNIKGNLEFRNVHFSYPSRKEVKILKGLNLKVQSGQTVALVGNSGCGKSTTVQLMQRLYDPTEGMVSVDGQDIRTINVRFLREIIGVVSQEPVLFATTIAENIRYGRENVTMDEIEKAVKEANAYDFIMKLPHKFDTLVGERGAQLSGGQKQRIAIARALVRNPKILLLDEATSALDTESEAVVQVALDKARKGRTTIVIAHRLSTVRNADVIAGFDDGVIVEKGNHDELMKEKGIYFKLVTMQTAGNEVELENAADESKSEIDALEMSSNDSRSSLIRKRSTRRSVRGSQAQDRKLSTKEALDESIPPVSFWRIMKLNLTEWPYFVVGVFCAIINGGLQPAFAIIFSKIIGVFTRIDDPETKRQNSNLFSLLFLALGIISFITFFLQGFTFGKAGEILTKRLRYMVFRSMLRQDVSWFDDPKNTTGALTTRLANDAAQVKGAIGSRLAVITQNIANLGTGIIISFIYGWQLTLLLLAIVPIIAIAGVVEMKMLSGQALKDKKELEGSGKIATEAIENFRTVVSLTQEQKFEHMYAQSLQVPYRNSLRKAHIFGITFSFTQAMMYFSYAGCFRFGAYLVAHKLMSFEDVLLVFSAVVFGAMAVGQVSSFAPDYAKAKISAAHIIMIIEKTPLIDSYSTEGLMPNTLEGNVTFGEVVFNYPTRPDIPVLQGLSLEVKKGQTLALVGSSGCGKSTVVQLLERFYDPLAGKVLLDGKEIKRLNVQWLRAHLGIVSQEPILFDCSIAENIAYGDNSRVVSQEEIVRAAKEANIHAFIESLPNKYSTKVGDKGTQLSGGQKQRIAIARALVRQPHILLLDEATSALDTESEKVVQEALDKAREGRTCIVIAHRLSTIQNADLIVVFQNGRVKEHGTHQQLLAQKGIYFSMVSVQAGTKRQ
Protocol: (§1) Meanwhile, verapamil was dissolved in water to 2 mM as well as MK571 and dipyridamole were dissolved in dimethyl sulfoxide (DMSO)-ethanol (v/v = 1/1) to prepare the stock solution (10 mM) when they were used. In addition, testosterone (internal standard) was dissolved in acetonitrile with acetic acid (v/v = 94/6) to 100 µM.
(§2) The transport experiments were performed as described previously. Firstly, the cell monolayers were rinsed thrice with 37 °C HBSS (pH 7.4), and the monolayers were incubated with the buffer for 1 h, then the incubation medium was aspirated. Afterwards, transport from the apical side (AP) to basolateral side (BL): 2.9 mL drug solution were added to the AP side (which was regarded as donor side) and 2.5mL HBSS were added to the BL side (which was regarded as receiver side). Transport from the basolateral side to apical side: 2.9 mL drug solution were added to the BL (donor) side and 2.5 mL HBSS were added to the AP (receiver) side. When the transport inhibitors were used, they were loaded only at the donor side. In the test for each solution, four donor samples (400 μL) and four receiver samples (400 μL) were taken at time intervals of 2, 3, 4, and 5 h after incubation, followed by an immediate replacement with fresh donor solution (400 μL) to the donor side or fresh buffer (400 μL) to the receiver side.
(§3) To each transport sample (400 µL), acetonitrile (100 µL) containing 100 µM of testosterone was added as an internal standard and preservation. The resulting mixture was vortexed for 30 sec and then centrifuged at 15,000 rpm for 15min. The supernatant obtained was determined by ultra-performance liquid chromatography (UPLC) within 24 h. At the end of the transport experiment, the TEER value was remeasured to confirm the integrity of the cell monolayer.
(§4) UPLC was used to determine the concentration of the compounds in the transport samples obtained from the Caco-2 model. The conditions for UPLC analysis of epimedin A, epimedin B, and epimedin C in the presence of inhibitors (verapamil or MK571) were as follows: system, Waters Acquity^TM UPLC with photodiode array detector and Empower software; column, Acquity UPLC BEH C18, 1.7 μm, 2.1 × 50 mm (Waters, Milford, MA, USA); mobile phase A, acetonitrile; mobile phase B, water; gradient, 0 to 0.5 min, 25% A, 0.5 to 1.0 min, 25% to 60% A, 1.0 to 2.5 min, 60% to 80% A, 2.5 to 3 min, 80% to 25% A; flow rate, 0.4 mL/min; wavelength, 270 nm (epimedin A, epimedin B and epimedin C), 283nm (MK571), 278 nm (verapamil) and 245 nm (testosterone); column temperature, 30 °C; and injection volume, 5 μL.
(§5) In the Caco-2 cell model, rate of transport is obtained from amount transported versus time curve using linear regression. […] The rate of drug transport was calculated by linear regression analysis using Microsoft Excel software (Microsoft Corporation, Redmond, WA, USA ). All data were presented as means ± SD. Statistical comparisons were evaluated by ANOVA test using the SPSS 16 software. Results were considered significant at p < 0.05.

[1] = Bidirectional transport (A-B and B-A) across Caco-2 cell monolayers; type: in vitro ADME; details: human; for efflux ratio at 5 h, 20 µM / efflux ratio at 5 h: Caco-2, pH 7.4; for efflux ratio at 5 h, 20 µM: 20 μM epimedin, no inhibitor, read-out: efflux ratio (PBA/PAB), control without inhibitor; for efflux ratio at 5 h / Papp A→B at 5 h / Papp B→A at 5 h: concentrations of 5–40 μM; for efflux ratio at 5 h: read-out: efflux ratio (PBA/PAB); for Papp A→B at 5 h / Papp B→A at 5 h: Caco-2, HBSS pH 7.4; for Papp A→B at 5 h: A-B direction, read-out: absorptive permeability (PAB); for Papp B→A at 5 h: B-A direction, read-out: secretory permeability (PBA)
Protocol: The Caco-2 TC7 cell line (at passage 30) is generally similar to the wild-type Caco-2 cell line. […] The conditions for Caco-2 cell culture have been described previously. Cells were cultured in a humidified atmosphere of 5% CO2 and 95% air at 37 °C. The culture medium (Dulbecco’s modified Eagle’s medium ) was supplemented with 10% (v/v) fetal bovine serum, 1% nonessential amino acids, 100 U/mL penicillin, and 100 µg/mL streptomycin. When the cell culture reached 80% confluence, it was rinsed with phosphate-buffered saline and split using trypsin. For transport experiments, the cells were seeded on 3 μm porous polycarbonate cell culture Transwell® inserts from Nunc, which has a surface area of 4.2 cm^2 at a density of 100,000 cells/cm^2. The culture media was replaced every other day. The monolayers were ready for experiments from 19 to 21 days after seeding. Transepithelial electrical resistance (TEER) was used to monitor the integrity and tight junction of the Caco-2 cell monolayer.
Epimedin A, epimedin B, and epimedin C were dissolved in dimethyl sulfoxide (DMSO)-ethanol (v/v = 6/4) to prepare the stock solution (8 mM) for each single compound. The above-mentioned solutions were further diluted with HBSS solution (pH = 7.4) to obtain a series of working standard solutions, and the final concentrations of epimedin A, epimedin B, and epimedin C in the transport samples were 5 µM, 10 µM, 20 µM and 40 µM, respectively. Moreover, the final concentrations of the organic solvent of different samples were controlled below 0.5% to ensure the safety to the cells.
as §2, §3
as §4, with “μL. […]” for “μL.”

[2] = system: multidrug resistance proteins (MRPs); experiment: Caco-2 transport in the presence of MK571 (MRP inhibitor); type: in vitro ADME, human; details: 20 μM epimedin, 50 μM MK571
Protocol: as §1, §2, §3, §4, §5

Caco-2 cells = experiment: MTT cell viability assay; type: cell-based, human; details: for reduction of cell viability rate of Caco-2 cells: 80 μM (highest concentration), 36 h, vs control; for cytotoxicity to the growth of Caco-2 cells: 10-80 μM
Protocol: Cell viability was measured using the 3-(4, 5-dimethylthiazol-2-yl)-2,5-diphenyltetrazolium bromide (MTT) assay. The Caco-2 cells were seeded in 96-well plates at a density of 2 × 10^3 cells/well in DMEM culture medium and cultured at 37 °C for 24 h. After that, the culture medium was replaced with fresh medium containing epimedins A, B, and C at concentrations ranging from 10 μM to 80 μM. Control groups consist of cells in medium (without epimedins A, B, and C) which are processed identically and incubated simultaneously as treated groups. And then the 96-well plates were incubated for 36 h. Subsequently, 10 μL of 5 mg/mL MTT was added to each well and the plates were incubated for another 4 h. The solutions in each well were then removed followed by dissolving the remained formazan crystals in the cells with 100 μL DMSO. The absorbance was measured at 550 nm using a microplate reader (Thermo Labsystems, Helsinki, Finland). The cell viability of each compound was calculated as the percentage of the absorbance relative to that of negative control.

[3] = target: T2, breast cancer resistance protein (BCRP) (Homo sapiens, UniProt Q9UNQ0); experiment: Caco-2 transport in the presence of dipyridamole (BCRP inhibitor); type: in vitro ADME; details: 20 μM epimedin
T2 construct: endogenous in cells; host or cells: Caco-2 TC7 cell monolayers
T2 sequence (Q9UNQ0 1-655): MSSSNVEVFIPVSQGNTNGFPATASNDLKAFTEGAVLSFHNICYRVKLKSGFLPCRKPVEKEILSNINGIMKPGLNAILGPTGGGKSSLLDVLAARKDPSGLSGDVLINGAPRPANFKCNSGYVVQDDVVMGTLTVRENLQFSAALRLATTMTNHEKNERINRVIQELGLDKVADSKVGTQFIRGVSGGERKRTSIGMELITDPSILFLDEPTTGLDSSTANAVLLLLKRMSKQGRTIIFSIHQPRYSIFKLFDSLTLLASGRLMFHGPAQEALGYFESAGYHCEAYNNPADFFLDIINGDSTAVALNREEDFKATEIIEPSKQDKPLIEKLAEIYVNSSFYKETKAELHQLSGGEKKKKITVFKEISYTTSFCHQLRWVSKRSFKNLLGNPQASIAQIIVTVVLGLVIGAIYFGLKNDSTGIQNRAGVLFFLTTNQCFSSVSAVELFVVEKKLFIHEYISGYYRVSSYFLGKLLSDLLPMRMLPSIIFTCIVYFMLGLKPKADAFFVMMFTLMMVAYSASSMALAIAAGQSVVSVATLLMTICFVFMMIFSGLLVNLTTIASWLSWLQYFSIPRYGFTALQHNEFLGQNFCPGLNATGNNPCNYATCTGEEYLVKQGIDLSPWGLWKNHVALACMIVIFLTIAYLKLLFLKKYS
Protocol: as §1, §2, §3
While analysis the samples in the presence of another inhibitor (dipyridamole), the conditions were as follows: system and column were the same as before; mobile phase A, 90% acetonitrile, 10%water; mobile phase B, 10% acetonitrile, 90% water containing 0.015% (v/v) formic acid and 0.02% (v/v) triethylamine (pH 3.0); gradient, 0–0.3 min, 95% B, 0.3–2.9 min, 95%–65% B, 3.8 min, 0% B, 3.8–4.5 min, 0%–95% B; flow rate, 0.4 mL/min; wavelength, 270 nm (epimedin A, epimedin B and epimedin C), 285 nm (dipyridamole) and 245 nm (testosterone,); column temperature, 30 °C; and injection volume, 5 μL.
as §5

Caco-2 cell monolayers = system: Caco-2 cell monolayers; set-up: method as in PMID 11145220; details: cited from earlier work

SMILES	efflux ratio at 5 h, 20 µM [1]	efflux ratio at 5 h [1]	Papp A→B at 5 h [1]	Papp B→A at 5 h [1]	effect on PAB and PBA (transport) [2]	reduction of efflux ratio [2]	reduction of cell viability rate of Caco-2 cells (Caco-2 cells)	cytotoxicity to the growth of Caco-2 cells (Caco-2 cells)	reduction of efflux ratio ([3]; 50 μM dipyridamole)	reduction of PBA (P-glycoprotein (P-gp); 50 μM verapamil)	reduction of PBA ([3]; 50 μM dipyridamole)	permeability of poorly absorbed compound (Caco-2 cell monolayers)	further results
COc1ccc(-c2oc3c(CC=C(C)C)c(O[C@@H]4O[C@H](CO)[C@@H](O)[C@H](O)[C@H]4O)cc(O)c3c(=O)c2O[C@@H]2O[C@@H](C)[C@H](O)[C@@H](O)[C@H]2O[C@@H]2OC[C@@H](O)[C@H](O)[C@H]2O)cc1 [epimedin B]	1.98	> 2	0.39 to 0.73 ×10⁻⁶ cm/s	1.19 to 1.76 ×10⁻⁶ cm/s	increased	32%	7%	nontoxic	50%				effect on PAB and PBA (P-glycoprotein (P-gp); verapamil): increased; reduction of efflux ratio (P-glycoprotein (P-gp); verapamil): 31%; effect on absorptive permeability ([3]; 50 μM dipyridamole): increased significantly; effect on secretory permeability ([3]; 50 μM dipyridamole): significantly decreased; efflux ratio at 5 h, 20 µM ([3]; human, Caco-2, pH 7.4, with dipyridamole 50 µM, 50 μM dipyridamole): 1.02
COc1ccc(-c2oc3c(CC=C(C)C)c(OC4O[C@H](CO)[C@@H](O)[C@H](O)[C@H]4O)cc(O)c3c(=O)c2OC2O[C@@H](C)[C@H](O)[C@@H](O)[C@H]2O[C@@H]2O[C@H](CO)[C@@H](O)[C@H](O)[C@H]2O)cc1 (stereo partly drawn) [epimedin A]	2.04	> 2	0.42 to 0.72 ×10⁻⁶ cm/s	1.29 to 1.89 ×10⁻⁶ cm/s	did not alter	13%	7%	nontoxic	47%	22%	38%		PAB relative to control group (P-glycoprotein (P-gp); 50 μM verapamil): 1.5 fold; efflux ratio at 5 h, 20 µM (P-glycoprotein (P-gp); Caco-2, pH 7.4, with verapamil 50 µM, 50 μM verapamil, read-out: efflux ratio in the presence of verapamil): 1.03; increase of PAB ([3]; 50 μM dipyridamole): 1.2 fold
O=C(O)c1cc(/N=N/c2ccc(S(=O)(=O)Nc3ccccn3)cc2)ccc1O [sulfasalazine]												0.34 × 10^−6	
OC[C@@H](O)[C@@H](O)[C@H](O)[C@H](O)CO [mannitol]												1.7e-06 cm/s	
COc1ccc(-c2oc3c(CC=C(C)C)c(O[C@@H]4O[C@H](CO)[C@@H](O)[C@H](O)[C@H]4O)cc(O)c3c(=O)c2O[C@@H]2O[C@@H](C)[C@H](O)[C@@H](O)[C@H]2O[C@@H]2O[C@@H](C)[C@H](O)[C@@H](O)[C@H]2O)cc1 [epimedin C]		> 2	0.42 to 0.72 ×10⁻⁶ cm/s	1.2 to 2.28 ×10⁻⁶ cm/s	did not significantly influence		7%	nontoxic		17%	27%		increase in absorptive permeability (PAB) (P-glycoprotein (P-gp); 50 μM verapamil): 109%; efflux ratio at 5 h, 20 µM (P-glycoprotein (P-gp); Caco-2, pH 7.4, with verapamil (concentration not stated for this group), verapamil, read-out: reduction of efflux ratio): ~2.5; increase in absorptive permeability (PAB) ([3]; 50 μM dipyridamole): 43%; fold reduction of efflux ratio at 5 h, 20 µM ([3]; human, Caco-2, pH 7.4, with dipyridamole (concentration not stated for this group), dipyridamole): ~1.95
